Measured values published in US4472414A, “Spiro[indolo[1,7-ab][1,5]benzodiazepine-2,4'-piperidines]” (Hoechst-Roussel Pharmaceuticals Incorporated, priority 1983, dated 1984).
Counter-ions that a name gives are not always drawn.

System: 2-phenyl-1,4-benzoquinone-induced writhing
Assay: 2-phenyl-1,4-benzoquinone-induced writhing test in mice (Phenylquinone Writhing), analgesic activity
Assay type: in vivo
Details: Mus musculus, sc, read-out: Inhibition of Writing ED50
From the text: Compounds of Formula I of the present invention, namely, compounds of Formulas II, III and IV are useful as analgesic agents due to their ability to alleviate pain in mammals. […] Exptl. Biol. Med., 95, 729 (1957)].

| SMILES | ED50 |
| --- | --- |
| CC1Nc2ccccc2N2CC3(CCN(C)CC3)c3cccc1c32 (stereo not shown) [1',6-Dimethyl-1,2,6,7-tetrahydro-spiro[indolo[1,7-ab][1,5]benzodiazepine-2,4'-piperidine]dihydrochloride] | 9.7 mg/kg |
| CC1=Nc2ccccc2N2CC3(CCN(C)CC3)c3cccc1c32 [1,2-Dihydro-1',6-dimethyl-spiro[indolo[1,7-ab][1,5]benzodiazepine-2,4'-piperidine]dihydrochloride] | 4.7 mg/kg |
| CC1c2cccc3c2N(CC32CCN(C)CC2)c2ccccc2N1C(=O)CCN(C)C (stereo not shown) [7-(N,N-dimethyl-3-aminopropionyl)-1',6-dimethyl-1,2,6,7-tetrahydro-spiro[indolo[1,7-ab][1,5]benzodiazepine-2,4'-piperidine]dihydrobromide] | 28.4 mg/kg |
| CN1CCC2(CC1)CN1c3ccccc3N=Cc3cccc2c31 [1,2-Dihydro-1'-methyl-spiro[indolo[1,7-ab][1,5]benzodiazepine-2,4'-piperidine]dihydrochloride] | 12.1 mg/kg |
